Test system: 519858-162-T-J1-PDC complex spheroid viability
Assay: Anticancer human tumor 519858-162-T-J1-PDC patient-derived colon adenocarcinoma cell line growth inhibition [GQUAD]
Conditions: for IC50: curve of first compound; for viability, T/C: stronger effect = lower value; active means viability on the fitted dose curve at most 10% of control; inactive means the rest
Source text: DNA G-quadruplex Stabilizer Agents in Combinations in Complex Spheroids
A high-throughput screen of multi-cell type tumor spheroids was designed to identify active combinations of DNA G-quadruplex stabilizer agents and targeted small molecules. Complex spheroids include a stromal component modeled by human endothelial cells (HUVEC) and fibroblasts modeled by human mesenchymal stem cells (MSCs). The concentration ranges selected for each drug and investigational agent were based upon clinically achievable concentrations if the clinical Cmax of the agent was known.
Compounds. The drugs and investigational agents: pidnarulex (CX-5461; NSC782164), APTO-253 (NSC789042), BRACO-19 (NSC847499), peposertib (NSC802822), ceralasertib (NSC780249), elimusertib (NSC800525), camonsertib (NSC841442), AZD-1390 (NSC803789), olaparib (NSC753686), talazoparib (NSC767125), ART-558 (NSC835418), sotorasib (NSC818433), MRTX-1133 (NSC836407), SN-38 (NSC673596), topotecan (NSC609699), etoposide (NSC141540), doxorubicin (NSC123127), gemcitabine (NSC613327), 5-fluorouracil (NSC19893), paclitaxel (NSC125973), vemurafenib (NSC761431), panobinostat (NSC761190), R-306465 (JNJ-16241199; NSC773264), adavosertib (NSC754352), TP-3654 (NSC805149), carboplatin (NSC241240), KSQ-4279 (NSC840948), and staurosporine (NSC755774) were obtained from the National Cancer Institute (NCI) Developmental Therapeutics Program Chemical Repository (34). The FDA-approved anticancer drug set is available from the NCI Developmental Therapeutics Program. […] The stock solutions were prepared in dimethyl sulfoxide (DMSO, Sigma-Aldrich, St. Louis, MO, cat. D2650) at 800-fold the tested concentration and stored at -70 degrees C prior to their use. All drugs and investigational agents were tested over a range starting from a high concentration at or near the clinical Cmax and decreasing in half-log increments. If the clinical Cmax for an agent had not been determined, the highest concentration tested was 10 microM.
2.3 Cell Culture. All cells were maintained in an incubator at 37 degrees C and 5% CO2 with 95% humidity. The PDC lines were cultured according to standard operating procedures established by the NCI PDMR. All PDCs were thawed and cultured in Matrigel-coated flasks prepared with a working solution of 1X Ham's F-12 nutrient mix, without supplementation (Invitrogen, cat. 11765054), 100 U/mL penicillin-streptomycin (Invitrogen, cat. 15140122), and 2.5% Matrigel (Corning Inc., cat. 354248) for the first three passages. The 857933-349-R-J2-PDC line was cultured in 6C/Colon 1B media, which includes advanced DMEM/F-12 (Thermo Fisher Scientific, cat. 12634028), 10 mM HEPES (Thermo Fisher Scientific, cat. 15630080), 1X GlutaMAX supplement (Thermo Fisher Scientific, cat. 35050061), 0.1 mg/mL primocin (InvivoGen, cat. ant-pm-2), 10% defined fetal bovine serum, heat inactivated (HyClone Laboratories Inc., cat. SH30070.03HI), 50% L-WRN conditioned media (ATCC, cat. CRL-3276), 1.25 mM N-Acetyl-L-cysteine (Sigma-Aldrich, cat. A9165), 10 mM nicotinamide (Sigma-Aldrich, cat. N0636), 1X B-27 supplement (Thermo Fisher Scientific, cat. 17504044), 1X N-2 supplement (Thermo Fisher Scientific, cat. 17502048), 10 microM Y-27632 dihydrochloride (Tocris Bioscience, cat. 1254), and 50 ng/mL human EGF recombinant protein (Thermo Fisher Scientific, cat. PHG0311). The 485176-168-R4-J1-PDC line was cultured in Panc media, which includes all 6C/Colon 1B media components plus 100 ng/mL human FGF-10 (Thermo Fisher Scientific, cat. 100-26), 500 nM SB-431542 (Selleckchem, cat. S1067), and gastrin (Tocris, cat. 3006).
[…]
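Further: spheroids exposed to compounds for 7 days.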

CC(=O)O[C@H]1C(=O)[C@@]2(C)[C@H]([C@H](OC(=O)c3ccccc3)[C@]3(O)C[C@H](OC(=O)[C@H](O)[C@@H](NC(=O)c4ccccc4)c4ccccc4)C(C)=C1C3(C)C)[C@]1(OC(C)=O)CO[C@@H]1C[C@@H]2O + CN(C)c1ccc(Nc2c3ccc(NC(=O)CCN4CCCC4)cc3nc3cc(NC(=O)CCN4CCCC4)ccc23)cc1
> 10 µM: IC50 (second compound 0.0316 µM) | IC50 (second compound 0.1 µM) | IC50 (second compound 0.316 µM) | IC50 (second compound 1 µM) | IC50 (second compound 3.16 µM) | IC50 (second compound 10 µM)
inactive: viability, T/C (second compound 0.0316 µM, first compound 0.0316 µM) 84.6% | viability, T/C (second compound 0.0316 µM, first compound 0.1 µM) 95.5% | viability, T/C (second compound 0.0316 µM, first compound 0.316 µM) 137% | viability, T/C (second compound 0.0316 µM, first compound 1 µM) 86.5% | viability, T/C (second compound 0.0316 µM, first compound 3.16 µM) 61.9% | viability, T/C (second compound 0.0316 µM, first compound 10 µM) 119% | viability, T/C (second compound 0.1 µM, first compound 0.0316 µM) 74.1% | viability, T/C (second compound 0.1 µM, first compound 0.1 µM) 134% | viability, T/C (second compound 0.1 µM, first compound 0.316 µM) 89.5% | viability, T/C (second compound 0.1 µM, first compound 1 µM) 82% | viability, T/C (second compound 0.1 µM, first compound 3.16 µM) 111% | viability, T/C (second compound 0.1 µM, first compound 10 µM) 98.4% | viability, T/C (second compound 0.316 µM, first compound 0.0316 µM) 89.7% | viability, T/C (second compound 0.316 µM, first compound 0.1 µM) 86.5% | viability, T/C (second compound 0.316 µM, first compound 0.316 µM) 96.8% | viability, T/C (second compound 0.316 µM, first compound 1 µM) 69.7% | viability, T/C (second compound 0.316 µM, first compound 3.16 µM) 92% | viability, T/C (second compound 0.316 µM, first compound 10 µM) 115% | viability, T/C (second compound 1 µM, first compound 0.0316 µM) 87.4% | viability, T/C (second compound 1 µM, first compound 0.1 µM) 74.9% | viability, T/C (second compound 1 µM, first compound 0.316 µM) 70.7% | viability, T/C (second compound 1 µM, first compound 1 µM) 64.5% | viability, T/C (second compound 1 µM, first compound 3.16 µM) 84.8% | viability, T/C (second compound 1 µM, first compound 10 µM) 86.3% | viability, T/C (second compound 3.16 µM, first compound 0.0316 µM) 79.1% | viability, T/C (second compound 3.16 µM, first compound 0.1 µM) 68.1% | viability, T/C (second compound 3.16 µM, first compound 0.316 µM) 70.8% | viability, T/C (second compound 3.16 µM, first compound 1 µM) 55.3% | viability, T/C (second compound 3.16 µM, first compound 3.16 µM) 75.9% | viability, T/C (second compound 3.16 µM, first compound 10 µM) 84.6% | viability, T/C (second compound 10 µM, first compound 0.0316 µM) 68.2% | viability, T/C (second compound 10 µM, first compound 0.1 µM) 62.4% | viability, T/C (second compound 10 µM, first compound 0.316 µM) 63.9% | viability, T/C (second compound 10 µM, first compound 1 µM) 55.1% | viability, T/C (second compound 10 µM, first compound 3.16 µM) 80.3% | viability, T/C (second compound 10 µM, first compound 10 µM) 72.7%
